What was measured:
[1] = hygroscopicity at 92% relative humidity; assay type: physicochemical; conditions: crystals kept at 92% relative humidity and room temperature for up to 37 days
[2] = solid state chemical stability on storage at elevated temperature and relative humidity; assay type: physicochemical; conditions: for BPPF% / mono(POC) PMPA fumarate%: 75% relative humidity, 0 days; for mono(POC) PMPA fumarate%: degradation product in stored BPPF
Source text: The solid state chemical stability of cBPPF and bis(POC)PMPA•citrate salt was compared by analyzing each compound after storage under different conditions.

[3] = human, in vivo

Substance: 9-[2-(R)-[[Bis[[(isopropoxycarbonyl)oxy]methoxy]phosphinoyl]methoxy]propyl]adenine• fumaric acid [BPPF]
- hygroscopicity [1]: not hygroscopic
- BPPF% ([2]; 40°C): 99.0%
- mono(POC) PMPA fumarate% ([2]; 40°C): 1.0%
- BPPF% ([2]; 60°C): 99.0%
- mono(POC) PMPA fumarate% ([2]; 60°C): 1.0%
- solid state chemical stability compared with bis(POC)PMPA citrate salt ([2]; powder, storage at elevated temperature and relative humidity): more stable
- oral bioavailability [3]: 30-40%
